For this assay, the target named is T1, human Chemokine like receptor 1 (Homo sapiens, UniProt Q99788).
T1 construct: host or cells: U2OS (Tango CMKLR1-bla U2OS)
T1 sequence (Q99788 1-373): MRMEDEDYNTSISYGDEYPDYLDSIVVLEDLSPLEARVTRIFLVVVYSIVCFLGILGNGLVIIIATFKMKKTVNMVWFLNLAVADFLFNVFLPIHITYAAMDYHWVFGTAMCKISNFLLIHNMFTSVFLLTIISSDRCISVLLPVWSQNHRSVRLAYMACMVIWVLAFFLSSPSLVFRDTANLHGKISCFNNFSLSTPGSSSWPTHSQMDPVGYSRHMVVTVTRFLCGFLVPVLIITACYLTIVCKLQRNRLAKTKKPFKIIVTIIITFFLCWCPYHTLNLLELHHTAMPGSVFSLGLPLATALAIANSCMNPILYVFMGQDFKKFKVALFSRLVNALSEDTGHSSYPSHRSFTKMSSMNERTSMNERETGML
Nature of the assay: Activation of Tango CMKLR1-bla U2OS cells (beta-lactamase FRET reporter). It counts as cell-based. Here is the method:
The polypeptide sequences described above are the polypeptide sequences disclosed in the patent JP2010-229093A of BANYU PHARMA CO LTD: (D-Tyr)-Phe-Leu-Pro-(D-Ser)-Gln-Phe-(D-Ala)-Tic-Ser was used as a positive control (SEQ ID NO: 102).
The activation of the compound on Tango™ CMKLR1-bla U2OS cells (Invitrogen Cat. nos. K1551) was tested.
The activation of each compound in the above experiments on Tango™ CMKLR1-bla U2OS cells was determined as follows:
Day 1: Cell Seeding on Plate
2. The medium was removed, and the cells were washed with DPBS twice, followed by addition of 3 mL of 0.05% trypsin, and placed in a 37° C., 5% CO2 incubator (Thermo Fisher, Waltham, Massachusetts, USA) for 3-5 minutes. After the cells were rounded, 3-5 mL of medium (medium formula: DMEM 90%, Dialyzed FBS 10%, NEAA 0.1 mM, HEPES (pH 7.3) 25 mM, Penicillin 100 U/mL, Streptomycin 100 μg/mL) was added to terminate digestion.
2. The digested cells were transferred to a 15 mL centrifuge tube (430790, Corning), centrifuged at 1000 rpm for 5 minutes (5810R, Eppendorf, Hamburg, Germany), and the supernatant was discarded.
3. 7 mL of medium (DMEM+10% FBS) was added, blowed into a single cell suspension, counted by a cell counter, and adjusted the cell suspension to a desired cell density of 250,000/mL with the medium.
4. The cell suspension was seeded into a 384-well cell plate (Corning 3712) in 40 μL/well to make the number of cells 10000 cells/well, and 32 μL of medium was added to the blank control.
5. The incubation was performed overnight at 37° C. under 5% CO2.
Day 2: Dosing and Testing
1. Preparation of 200× Compound Plate
1.1 The test compound was formulated into a 10 mM working solution in DMSO.
1.2 45 μL of 10 mM test compound was added to the 2nd column of rows A to P in the Echo-384 well plate. The compound was subjected to a 3-fold dilution with Precision (30 μL of DMSO was added to the 3rd to 11th columns; 15 μL of the drug solution was pipetted from the 2nd column to the 3rd column, blown and evenly mixed; then 15 μL of the drug solution was pipetted from the 3rd column to the 4th column, blown and evenly mixed; the drugs was subjected to a 3-fold dilution to obtain 10 concentrations in total). The 1st and 12th columns of the Echo-384 well plate were supplemented with 30 μL of DMSO.
2. Preparation of Intermediate Plate
500 nL, i.e., 0.5 μL of the diluted compound (or DMSO) in the 200× compound plate was transferred into the corresponding position of V-bottom 384-well plate with Echo. 20 μL of medium was added to each well, centrifuged, shaken and evenly mixed. The concentration of the drugs in each well of the 2nd to 11th column of intermediate plate (i.e., 5× compound plate) were shown in following Table 4.
3.1 The cell plate was taken out from the incubator and observed under a microscope. The diluted compound or DMSO in the intermediate plate was added to the cell plate in 10 μL/well in the corresponding cell plate, and 40 μL of medium was pre-filled in each well.
3.2 The cells were incubated at 37° C. under 5% CO2 for 4 hours.
4.1 1 mM CCF4-AM, solution B, Solution C, and Solution D were used to prepare an appropriate amount of 6× detection solution. The LiveBLAzer™-FRET B/G Loading kit (K1095, Thermo Fisher, Waltham, Massachusetts, USA) kit containing CCF-4AM and solutionB, solutionC, and solutionD was also purchased from invitrogen (K1157, Thermo Fisher, Waltham, Massachusetts, USA).
4.2 The cells were observed under a microscope and the cell plate was equilibrated to room temperature.
4.3 6 μL of CCF-4AM dissolved solution A, 60 μL of solution B, 904 μL of solution C and 30 μL of solution D were pipetted in an EP tube, blown, and evenly mixed to obtain a 6× detection solution. The prepared 6× detection solution was pipetted to a 384-well plate in 10 μL/well.

[1] abbreviates: determination by the method of Effect Embodiment 1, read-out: EC50.

Like-named read-outs stand apart in the source and are kept apart here. Square brackets hold non-standard residues; d marks the D form. Peptide text beside a SMILES is read from it. Pro(trans-4-Ph) = O=C(O)[C@@H]1C[C@@H](c2ccccc2)CN1; Pro(5R-Ph) = O=C(O)[C@@H]1CC[C@H](c2ccccc2)N1; Gly(Nα-CH2CH2CONH2) = NC(=O)CCNCC(=O)O; dNMeY = CN[C@H](Cc1ccc(O)cc1)C(=O)O; NMehLeu = CN[C@@H](CCC(C)C)C(=O)O; NMeF = CN[C@@H](Cc1ccccc1)C(=O)O; NMeQ = CN[C@@H](CCC(N)=O)C(=O)O; Tic = O=C(O)[C@@H]1Cc2ccccc2CN1; NMeL = CN[C@@H](CC(C)C)C(=O)O; NMeS = CN[C@@H](CO)C(=O)O; Thz = O=C(O)[C@@H]1CSCN1; Aze = O=C(O)[C@@H]1CCN1

For `CC(C)C[C@@H](C(=O)N1CCC[C@H]1C(=O)N[C@H](CO)C(=O)N[C@@H](CCC(N)=O)C(=O)N[C@@H](Cc1ccccc1)C(=O)N[C@H](C)C(=O)N1Cc2ccccc2C[C@H]1C(=O)N[C@@H](CO)C(=O)O)N(C)C(=O)[C@H](Cc1ccccc1)NC(=O)[C@H](N)Cc1ccc(O)cc1` [YW-98, (D-Tyr)-Phe-(NMe-Leu)-Pro-(D-Ser)-Gln-Phe-(D-Ala)-Tic-Ser-OH] (H-[dY]F[NMeL]P[dS]QF[dA][Tic]S-OH), under setting [1], the half-maximal effective concentration (EC50) (in general, the concentration that produces a half-maximal response) turned out to be 3 nM.
Turning to `C[C@@H](NC(=O)[C@H](Cc1ccccc1)NC(=O)[C@H](CCC(N)=O)NC(=O)[C@@H](CO)NC(=O)[C@@H]1CCCN1C(=O)[C@H](Cc1ccccc1)N(C)C(=O)[C@H](Cc1ccccc1)NC(=O)[C@H](N)Cc1ccc(O)cc1)C(=O)N1Cc2ccccc2C[C@H]1C(=O)N[C@@H](CO)C(=O)O` [YW-100, (D-Tyr)-Phe-(NMe-Phe)-Pro-(D-Ser)-Gln-Phe-(D-Ala)-Tic-Ser-OH] (H-[dY]F[NMeF]P[dS]QF[dA][Tic]S-OH), the 50% effective concentration (EC50) under setting [1] came to 42 nM.
With `CC(C)CC[C@@H](C(=O)N1CCC[C@H]1C(=O)N[C@H](CO)C(=O)N[C@@H](CCC(N)=O)C(=O)N[C@@H](Cc1ccccc1)C(=O)N[C@H](C)C(=O)N1Cc2ccccc2C[C@H]1C(=O)N[C@@H](CO)C(=O)O)N(C)C(=O)[C@H](Cc1ccccc1)NC(=O)[C@H](N)Cc1ccc(O)cc1` [YW-101, (D-Tyr)-Phe-(NMe-HoLeu)-Pro-(D-Ser)-Gln-Phe-(D-Ala)-Tic-Ser-OH] (H-[dY]F[NMehLeu]P[dS]QF[dA][Tic]S-OH), the response was half-maximal at 2.9 nM (EC50).
Consider `CN[C@H](Cc1ccc(O)cc1)C(=O)N[C@@H](Cc1ccccc1)C(=O)N[C@@H](CC(C)C)C(=O)N1CCC[C@H]1C(=O)N[C@H](CO)C(=O)N[C@@H](CCC(N)=O)C(=O)N[C@@H](Cc1ccccc1)C(=O)N[C@H](C)C(=O)N1Cc2ccccc2C[C@H]1C(=O)N[C@@H](CO)C(=O)O` [YW-103, (D-NMe-Tyr)-Phe-Leu-Pro-(D-Ser)-Gln-Phe-(D-Ala)-Tic-Ser-OH] (H-[dNMeY]FLP[dS]QF[dA][Tic]S-OH; N-terminus assumed), for which the 50% effective concentration (EC50) under setting [1] turned out to be 9.4 nM.
Turning to `CC(C)C[C@H](NC(=O)[C@H](Cc1ccccc1)N(C)C(=O)[C@H](N)Cc1ccc(O)cc1)C(=O)N1CCC[C@H]1C(=O)N[C@H](CO)C(=O)N[C@@H](CCC(N)=O)C(=O)N[C@@H](Cc1ccccc1)C(=O)N[C@H](C)C(=O)N1Cc2ccccc2C[C@H]1C(=O)N[C@@H](CO)C(=O)O` [YW-104, (D-Tyr)-(NMe-Phe)-Leu-Pro-(D-Ser)-Gln-Phe-(D-Ala)-Tic-Ser-OH] (H-[dY][NMeF]LP[dS]QF[dA][Tic]S-OH), under setting [1], the half-maximal effective concentration (EC50) was 80 nM.
Regarding `CC(C)C[C@@H](C(=O)N1CCC[C@H]1C(=O)N[C@H](CO)C(=O)N[C@@H](CCC(N)=O)C(=O)N[C@@H](Cc1ccccc1)C(=O)N[C@H](C)C(=O)N1Cc2ccccc2C[C@H]1C(=O)N[C@@H](CO)C(=O)O)N(C)C(=O)[C@H](Cc1ccccc1)N(C)C(=O)[C@H](N)Cc1ccc(O)cc1` [YW-105, (D-Tyr)-(NMe-Phe)-(NMe-Leu)-Pro-(D-Ser)-Gln-Phe-(D-Ala)-Tic-Ser-OH] (H-[dY][NMeF][NMeL]P[dS]QF[dA][Tic]S-OH; N-terminus assumed), the half-maximal effective concentration (EC50) under setting [1] worked out at 10.6 nM.
Same read-out and setting: next, `CC(C)C[C@H](NC(=O)[C@H](Cc1ccccc1)NC(=O)[C@H](N)Cc1ccc(O)cc1)C(=O)N1CCC[C@H]1C(=O)N[C@H](CO)C(=O)N(C)[C@@H](CCC(N)=O)C(=O)N[C@@H](Cc1ccccc1)C(=O)N[C@H](C)C(=O)N1Cc2ccccc2C[C@H]1C(=O)N[C@@H](CO)C(=O)O` [YW-107, (D-Tyr)-Phe-Leu-Pro-(D-Ser)-(NMe-Gln)-Phe-(D-Ala)-Tic-Ser-OH] (H-[dY]FLP[dS][NMeQ]F[dA][Tic]S-OH): over 50000 nM; `CC(C)C[C@H](NC(=O)[C@H](Cc1ccccc1)NC(=O)[C@H](N)Cc1ccc(O)cc1)C(=O)N1CCC[C@H]1C(=O)N[C@H](CO)C(=O)N(CCC(N)=O)CC(=O)N[C@@H](Cc1ccccc1)C(=O)N[C@H](C)C(=O)N1Cc2ccccc2C[C@H]1C(=O)N[C@@H](CO)C(=O)O` [YW-108, (D-Tyr)-Phe-Leu-Pro-(D-Ser)-NGln-Phe-(D-Ala)-Tic-Ser-OH] (H-[dY]FLP[dS][Gly(Nα-CH2CH2CONH2)]F[dA][Tic]S-OH): over 50000 nM; `CC(C)C[C@H](NC(=O)[C@H](Cc1ccccc1)NC(=O)[C@H](N)Cc1ccc(O)cc1)C(=O)N1CCC[C@H]1C(=O)N[C@H](CO)C(=O)N[C@@H](CCC(N)=O)C(=O)N[C@@H](Cc1ccccc1)C(=O)N[C@H](C)C(=O)N1Cc2ccccc2C[C@H]1C(=O)N(C)[C@@H](CO)C(=O)O` [YW-110, (D-Tyr)-Phe-Leu-Pro-(D-Ser)-Gln-Phe-(D-Ala)-Tic-(NMe-Ser)-OH] (H-[dY]FLP[dS]QF[dA][Tic][NMeS]-OH): 13 nM.
Regarding `CC(C)C[C@H](NC(=O)[C@H](Cc1ccccc1)NC(=O)[C@H](N)Cc1ccc(O)cc1)C(=O)N1[C@@H](c2ccccc2)CC[C@H]1C(=O)N[C@H](CO)C(=O)N[C@@H](CCC(N)=O)C(=O)N[C@@H](Cc1ccccc1)C(=O)N[C@H](C)C(=O)N1Cc2ccccc2C[C@H]1C(=O)N[C@@H](CO)C(=O)O` [YW-112, (D-Tyr)-Phe-Leu-Pro(5Ph)-(D-Ser)-Gln-Phe-(D-Ala)-Tic-Ser-OH] (H-[dY]FL[Pro(5R-Ph)][dS]QF[dA][Tic]S-OH), the EC50 under setting [1] amounted to 170 nM.
On the same count and under the same terms, under `CC(C)C[C@H](NC(=O)[C@H](Cc1ccccc1)NC(=O)[C@H](N)Cc1ccc(O)cc1)C(=O)N1C[C@H](c2ccccc2)C[C@H]1C(=O)N[C@H](CO)C(=O)N[C@@H](CCC(N)=O)C(=O)N[C@@H](Cc1ccccc1)C(=O)N[C@H](C)C(=O)N1Cc2ccccc2C[C@H]1C(=O)N[C@@H](CO)C(=O)O` [YW-113, (D-Tyr)-Phe-Leu-Pro(4-Ph)-(D-Ser)-Gln-Phe-(D-Ala)-Tic-Ser-OH] (H-[dY]FL[Pro(trans-4-Ph)][dS]QF[dA][Tic]S-OH) stands 8.6 nM; under `CC(C)C[C@H](NC(=O)[C@H](Cc1ccccc1)NC(=O)[C@H](N)Cc1ccc(O)cc1)C(=O)N1CSC[C@H]1C(=O)N[C@H](CO)C(=O)N[C@@H](CCC(N)=O)C(=O)N[C@@H](Cc1ccccc1)C(=O)N[C@H](C)C(=O)N1Cc2ccccc2C[C@H]1C(=O)N[C@@H](CO)C(=O)O` [YW-114, (D-Tyr)-Phe-Leu-Thz-(D-Ser)-Gln-Phe-(D-Ala)-Tic-Ser-OH] (H-[dY]FL[Thz][dS]QF[dA][Tic]S-OH), 5 nM; under `CC(C)C[C@H](NC(=O)[C@H](Cc1ccccc1)NC(=O)[C@H](N)Cc1ccc(O)cc1)C(=O)N1CC[C@H]1C(=O)N[C@H](CO)C(=O)N[C@@H](CCC(N)=O)C(=O)N[C@@H](Cc1ccccc1)C(=O)N[C@H](C)C(=O)N1Cc2ccccc2C[C@H]1C(=O)N[C@@H](CO)C(=O)O` [YW-115, (D-Tyr)-Phe-Leu-Aze-(D-Ser)-Gln-Phe-(D-Ala)-Tic-Ser-OH] (H-[dY]FL[Aze][dS]QF[dA][Tic]S-OH), 190 nM.

(Values after patent publication US12129312B2, “Peptide compound, application thereof and composition containing same” (priority 2017, dated 2024).)
